Data set [1] in a line: Hepatocyte metabolic stability experiment (HMS), C. Format: in vitro ADME. The settings on record: cynomolgus monkey, C hepatocytes, read-out: HMS CLint(liver). As to the method: (§1) Experimental operations: 198 μL of hepatocyte suspension (0.51×10^6 cells/mL) was added to the preheated incubation plate, and 198 μL of culture medium without hepatocytes was added to T0-MC and T120-MC incubation plates for the culture medium control group, and all incubation plates were pre-incubated for 10 minutes in a 37° C. incubator. Then 2 μL of the working solution of the test and control compounds were added and mixed well, and the incubation plate was immediately put into the plate shaker in the incubator, the rotation speed was adjusted to about 650 rpm, and the timer and the reaction were started. 2 duplicate samples for each compound were prepared at each time point. Incubation conditions: 37° C., saturated humidity, and containing 5% CO2. In the test system, the final concentration of the test compound was 1 μM, the final concentration of the control compound was 3 μM, the final concentration of hepatocytes was 0.5×10^6 cells/mL, and the final concentration of the total organic solvent was 0.96%, of which the final concentration of DMSO was 0.1%. […] All samples were mixed and analyzed by LC-MS/MS method. […]

The test system of data set [2] is experimental autoimmune encephalomyelitis (EAE) model. In words: In vivo efficacy of EAE in C57BL/6 mice. The settings on record: C57BL/6 female mice, 5 mg/kg. The protocol:
Experimental methods: Experimental autoimmune encephalomyelitis (EAE) model was established in 10-week-old C57BL/6 female mice, and the animals were randomly divided into two groups according to their weight, of which, group G1 was a pure modeling group with 5 animals, and group G2 was a subject 002 group with 7 animals. On day 0, 100 μL of myelin oligodendrocyte glycoprotein (MOG) emulsion was injected subcutaneously into the hind flank of each animal in the G1-G2 group at two points, totaling 200 μL. After 2 hours and 48 hours, respectively, 200 μL of pertussis toxin (PTX) was injected subcutaneously into the animals of groups G1-G2. The in vivo experiment was finished on day 22, and no treatment was given to group G1 from day 0; G2 group was administered 5 mg/kg of subject 002 once a day for […]. The animals in each group were weighed and scored (including tail weakness, claudication, hind limb paralysis, hind limb paralysis and other symptoms) every 2 days. [table] [table]

The nature of data set [3]: Hepatocyte metabolic stability experiment (HMS), R. Format: in vitro ADME. Conditions: rat, R hepatocytes, read-out: HMS CLint(liver). The protocol:
as §1

As to `Nc1nccc2c1n(-c1ccc(Oc3ccccc3)cc1)c(=O)n2[C@@H]1CCCN(C(=O)/C=C/CF)C1` [Compound 002], the values for the CLint scaled at 1 μM in data set [1] and in data set [3] were 203 mL/min/kg and 171 mL/min/kg, respectively. In addition, the “efficacy in EAE model / severity of the disease (in words)” value in data set [2] (QD, compared with the modeling group) is on record as “effective in reducing the severity of the disease”. Further, in data set [2] (EAE model, QD × 29, moulding group 1.8), the “Scores of animals on day 20 after administration” value was 0.4.
